Reference: US20120149700A1, “2-CYANOPHENYL FUSED HETEROCYCLIC COMPOUNDS, AND COMPOSTIONS AND USES THEREOF” (priority 2007, published 2012)

What was measured:
P2X3 = target: T1, P2X3 (Homo sapiens, UniProt P56373); experiment: Calcium uptake assay (P2X antagonist assay, inhibition of agonist-induced calcium influx), P2X3; format: cell-based; settings: inhibition of agonist-induced calcium influx in cells expressing the receptor
T1 construct: expressed in transfected cells; host or cells: e.g. HEK293 or 1321N1
T1 sequence (P56373 1-397): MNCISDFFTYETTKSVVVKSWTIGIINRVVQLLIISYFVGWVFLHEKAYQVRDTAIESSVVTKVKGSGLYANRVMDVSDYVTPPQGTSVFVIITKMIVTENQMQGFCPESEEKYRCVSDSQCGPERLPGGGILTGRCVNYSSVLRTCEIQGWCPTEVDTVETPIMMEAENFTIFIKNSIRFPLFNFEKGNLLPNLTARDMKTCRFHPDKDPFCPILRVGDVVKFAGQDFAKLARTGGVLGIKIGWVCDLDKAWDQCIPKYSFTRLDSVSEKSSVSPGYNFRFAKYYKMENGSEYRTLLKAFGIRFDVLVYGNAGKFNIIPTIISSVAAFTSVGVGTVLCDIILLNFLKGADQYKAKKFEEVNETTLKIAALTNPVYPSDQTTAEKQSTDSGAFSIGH
From the text: (§1) The human P2X2/3 chimera clone is created as described by Neelands et al, and then cloned into an expression vector as above. Receptors are expressed in cells (e.g., HEK293 or 1321N1 (obtained from the ECACC)) via transient transfection using standard lipid mediated transfection, or by creation of stable transfectants for each receptor. For expression of the P2X2/3 heteromeric receptor, the P2X3 expression vector is stably transfected into a cell line already stably expressing P2X2. P2X2/3 heteromer function is isolated using pharmacological methods. Cell lines are maintained in DMEM+5% Glutamax, the appropriate level of selective antibiotic, and 10% heat inactivated FBS.
(§2) Functional activity of compounds at the P2X receptor is determined by measuring their ability to inhibit agonist-induced calcium influx. Compounds are tested for antagonist activity against the P2X2/3 chimera, the P2X3 homomer, or the P2X2/3 heteromer. At the start of each screening day, the agonist EC50 is determined. Compound % inhibition or IC50s are subsequently determined using a pre-determined agonist concentration (EC50-90 depending on cell line) as a stimulus. The agonists used are αβMeATP, ATP, or other ATP analogs. Compounds may be tested at concentrations ranging from 1 pM to 10 μM.
(§3) To test for antagonist activity, cells expressing the appropriate receptor are seeded onto 96 or 384 well plates 18-24 hours prior to assay. […] Plates are incubated at 37° C. and then equilibrated at room temperature. Antagonism of agonist-induced calcium influx is measured using a fluorescent imaging plate reader (e.g. FLIPR^TETRA, Molecular Devices, Sunnyvale, Calif.). The assay comprises two stages: a pre-treatment phase followed by a treatment phase. Compounds may be tested as follows: For the pre-treatment phase, 50 μL of 3× concentration of test compound in HBSS is added to cells containing 100 μL of dye loading media to achieve a final concentration of 1× test compound. For the treatment phase, at a set interval after pre-treatment (1-30 minutes), 50 μl, of 1× test compound plus 4× agonist solution is added, resulting in a final concentration of 1× compound and 1× agonist. […] Responses are measured as (peak fluorescence after agonist addition) minus (baseline fluorescence prior to treatment). Percent inhibition is calculated as follows: […]
(§4) IC50 values are determined by analyzing dose response data in a 4 parameter logistic fit using GraphPad Prizm.

P2X2/3 = target: T2, P2X2/3 (Homo sapiens, UniProt P56373+Q9UBL9); experiment: Calcium uptake assay (P2X antagonist assay, inhibition of agonist-induced calcium influx), P2X2/3; format: cell-based; settings: inhibition of agonist-induced calcium influx in cells expressing the receptor
T2 construct: expressed in transfected cells; host or cells: cell line stably expressing P2X2, stably transfected with P2X3 (e.g. HEK293 or 1321N1)
T2 sequence (Q9UBL9 1-471): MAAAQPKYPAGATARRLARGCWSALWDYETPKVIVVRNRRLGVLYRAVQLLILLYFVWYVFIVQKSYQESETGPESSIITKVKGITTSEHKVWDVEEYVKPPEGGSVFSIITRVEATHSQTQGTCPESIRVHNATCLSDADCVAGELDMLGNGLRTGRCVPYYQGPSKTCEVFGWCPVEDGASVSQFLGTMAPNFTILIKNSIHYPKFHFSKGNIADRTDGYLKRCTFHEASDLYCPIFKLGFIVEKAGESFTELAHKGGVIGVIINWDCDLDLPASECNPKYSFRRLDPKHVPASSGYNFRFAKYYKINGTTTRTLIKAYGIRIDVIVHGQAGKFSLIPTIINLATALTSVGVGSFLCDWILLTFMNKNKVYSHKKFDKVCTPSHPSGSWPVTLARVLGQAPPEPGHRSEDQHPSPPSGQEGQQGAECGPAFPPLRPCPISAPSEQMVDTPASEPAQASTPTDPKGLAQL
T2 sequence (P56373 1-397): T1 sequence (P56373 1-397)
From the text: as §1, §2, §3, §4

Cc1ccc(N2CCc3ncnc(NCc4ccc(Cl)cn4)c3C2)c(C#N)c1 [Compound 28, 2-{-4-[(5-Chloro-pyridin-2-ylmethyl)-amino]-7,8-dihydro-5,1-pyrido[4,3-d]pyrimidin-6-yl}-5-methyl-benzonitrile]
IC50 (P2X3): 29 nM | IC50 (P2X2/3): 152 nM

COc1ccc(CNc2ncnc3c2CN(c2ccc(Cl)cc2C#N)CC3)cn1 [Compound 13, 5-Chloro-2-(4-((6-methoxypyridin-3-yl)methylamino)-7,8-dihydropyrido[4,3-d]pyrimidin-6(5H)-yl)benzonitrile]
IC50 (P2X3): 59 nM | IC50 (P2X2/3): 169 nM

Cc1nc(C(F)(F)F)ccc1CNc1ncnc2c1CN(c1ccc(Cl)cc1C#N)CC2 [Compound 11, 5-Chloro-2-(4-((2-methyl-6-(trifluoromethyl)pyridin-3-yl)methylamino)-7,8-dihydropyrido[4,3-d]pyrimidin-6(5H)-yl)benzonitrile]
IC50 (P2X3): 187 nM | IC50 (P2X2/3): > 10000 nM

Cc1ccc(N2CCc3ncnc(NCc4ccc5nccnc5c4)c3C2)c(C#N)c1 [Compound 79, 5-Methyl-2-(4-(quinoxalin-6-ylmethylamino)-7,8-dihydropyrido[4,3-d]pyrimidin-6(5H)-yl)benzonitrile]
IC50 (P2X3): 34 nM | IC50 (P2X2/3): 67 nM

Cc1ccc(N2CCc3ncnc(NCc4ccc(Cl)nc4)c3C2)c(C#N)c1 [Compound 27, 2-{4-[(6-Chloro-pyridin-3-ylmethyl)-amino]-7,8-dihydro-5H-pyrido[4,3-d]pyrimidin-6-yl}-5-methyl-benzonitrile]
IC50 (P2X3): 11 nM | IC50 (P2X2/3): 25 nM

Cc1ccc(N2CCc3ncnc(NCc4ccc(C5CC5)cn4)c3C2)c(C#N)c1 [Compound 30, 2-{4-[(5-Cyclopropyl-pyridin-2-ylmethyl)-amino]-7,8-dihydro-5H-pyrido[4,3-d]pyrimidin-6-yl}-5-methyl-benzonitrile]
IC50 (P2X3): 236 nM | IC50 (P2X2/3): 377 nM

Cc1ccc(N2CCc3ncnc(NCc4ccc(C)c(I)c4)c3C2)c(C#N)c1 [Compound 55, 2-[4-(3-Iodo-4-methyl-benzylamino)-7,8-dihydro-5H-pyrido[4,3-d]pyrimidin-6-yl]-5-methyl-benzonitrile]
IC50 (P2X3): 512 nM | IC50 (P2X2/3): 1300 nM

N#Cc1cc(Cl)ccc1N1CCc2ncnc(NCc3ccc4nccnc4c3)c2C1 [Compound 84, 5-Chloro-2-{4-[(quinoxalin-6-ylmethyl)-amino]-7,8-dihydro-5H-pyrido[4,3-d]pyrimidin-6-yl}-benzonitrile]
IC50 (P2X3): 125 nM | IC50 (P2X2/3): 478 nM

Cc1ccc(N2CCc3ncnc(NCc4ccc5ocnc5c4)c3C2)c(C#N)c1 [Compound 38, 2-{4-[(Benzooxazol-5-ylmethyl)-amino]-7,8-dihydro-5H-pyrido[4,3-d]pyrimidin-6-yl}-5-methyl-benzonitrile]
IC50 (P2X3): 15 nM | IC50 (P2X2/3): 45 nM

Cc1ccc(N2CCc3ncnc(NCc4ccc(C)c(C#N)c4)c3C2)c(C#N)c1 [Compound 56]
IC50 (P2X3): 63 nM | IC50 (P2X2/3): 82 nM

Cc1ccc(N2CCc3ncnc(NCc4ccc(C(F)(F)F)nc4)c3C2)c(C#N)c1 [Compound 1, 5-Methyl-2-{4-[(6-trifluoromethyl-pyridin-3-ylmethyl)-amino]-7,8-dihydro-5H-pyrido[4,3-d]pyrimidin-6-yl}-benzonitrile]
IC50 (P2X3): 19 nM | IC50 (P2X2/3): 92 nM

COc1ccc([C@@H](CO)Nc2ncnc3c2CN(c2ccc(Cl)cc2C#N)CC3)cn1 [Compound 35, 5-Chloro-2-{4-[(S)-2-hydroxy-1-(6-methoxy-pyridin-3-yl)-ethylamino]-7,8-dihydro-5H-pyrido[4,3-d]pyrimidin-6-yl}-benzonitrile]
IC50 (P2X3): 23 nM | IC50 (P2X2/3): 200 nM

Cc1ccc(N2CCc3ncnc(NCc4cccc(-n5cnnc5)c4)c3C2)c(C#N)c1 [Compound 53, 5-Methyl-2-[4-(3-[1,2,4]triazol-4-yl-benzylamino)-7,8-dihydro-5H-pyrido[4,3-d]pyrimidin-6-yl]-benzonitrile]
IC50 (P2X3): 65 nM | IC50 (P2X2/3): 324 nM

Cc1ccc(N2CCc3ncnc(NCc4ccc(C)c(N5CCOCC5)c4)c3C2)c(C#N)c1 [Compound 63, 5-Methyl-2-[4-(4-methyl-3-morpholin-4-yl-benzylamino)-7,8-dihydro-5H-pyrido[4,3-d]pyrimidin-6-yl]-benzonitrile]
IC50 (P2X3): 96 nM | IC50 (P2X2/3): 1120 nM

COc1ccc([C@@H](CC(=O)O)Nc2ncnc3c2CN(c2ccc(Cl)cc2C#N)CC3)cn1 [Compound 19, (R)-3-[6-(4-Chloro-2-cyano-phenyl)-5,6,7,8-tetrahydro-pyrido[4,3-d]pyrimidin-4-ylamino]-3-(6-methoxy-pyridin-3-yl)-propionic acid]
IC50 (P2X3): 1380 nM | IC50 (P2X2/3): > 10000 nM

N#Cc1cc(Cl)ccc1N1CCc2ncnc(NCc3ccc(C(F)(F)F)nc3)c2C1 [Compound 4, 5-Chloro-2-{4-[(6-trifluoromethyl-pyridin-3-ylmethyl)-amino]-7,8-dihydro-5H-pyrido[4,3-d]pyrimidin-6-yl}-benzonitrile]
IC50 (P2X3): 37 nM | IC50 (P2X2/3): 842 nM

Cc1ccc(N2CCc3ncnc(NCc4ccc5cccnc5c4)c3C2)c(C#N)c1 [Compound 92, 5-Methyl-2-(4-(quinolin-7-ylmethylamino)-7,8-dihydropyrido[4,3-d]pyrimidin-6(5H)-yl)benzonitrile]
IC50 (P2X3): 20 nM | IC50 (P2X2/3): 24 nM

CC(=O)OCC[C@@H](Nc1ncnc2c1CN(c1ccc(C)cc1C#N)CC2)c1ccc(C(F)(F)F)nc1 [Compound 77, Acetic acid (R)-3-[6-(2-cyano-4-methyl-phenyl)-5,6,7,8-tetrahydro-pyrido[4,3-d]pyrimidin-4-ylamino]-3-(6-trifluoromethyl-pyridin-3-yl)-propyl ester]
IC50 (P2X3): 130 nM | IC50 (P2X2/3): 536 nM

N#Cc1cc(F)ccc1N1CCc2ncnc(NCc3ccc(C(F)(F)F)nc3)c2C1 [Compound 9, 5-Fluoro-2-{4-[(6-trifluoromethyl-pyridin-3-ylmethyl)-amino]-7,8-dihydro-5H-pyrido[4,3-d]pyrimidin-6-yl}-benzonitrile]
IC50 (P2X3): 85 nM | IC50 (P2X2/3): 11400 nM

N#Cc1cc(Cl)ccc1N1CCc2ncnc(N[C@H](CO)c3ccc(C(F)(F)F)nc3)c2C1 [Compound 47, 5-Chloro-2-{4-[(S)-2-hydroxy-1-(6-trifluoromethyl-pyridin-3-yl)-ethylamino]-7,8-dihydro-5H-pyrido[4,3-d]pyrimidin-6-yl}-benzonitrile]
IC50 (P2X3): 54 nM | IC50 (P2X2/3): 671 nM

COc1ccc([C@@H](CCO)Nc2ncnc3c2CN(c2ccc(Cl)cc2C#N)CC3)cn1 [Compound 34, 5-Chloro-2-{4-[(R)-3-hydroxy-1-(6-methoxy-pyridin-3-yl)-propylamino]-7,8-dihydro-5H-pyrido[4,3-d]pyrimidin-6-yl}-benzonitrile]
IC50 (P2X3): 33 nM | IC50 (P2X2/3): 105 nM

Cc1ccc(N2CCc3ncnc(NCc4cccc(C#N)c4)c3C2)c(C#N)c1 [Compound 36, 2-[4-(3-Cyano-benzylamino)-7,8-dihydro-5H-pyrido[4,3-d]pyrimidin-6-yl]-5-methyl-benzonitrile]
IC50 (P2X3): 183 nM | IC50 (P2X2/3): 1090 nM
